Source: the NIST ThermoML archive (doi:10.1016/j.jct.2013.01.004)
± gives the expanded uncertainty stated by the source.

Assay: molar heat capacity at constant pressure
Conditions: 101.33 kPa, Crystal, Thin-film microcalorimeter

Q: Which results are given for `[O-2].[Zn+2]` [zinc(II) oxide]?
A: molar heat capacity at constant pressure (12 K): 0.1048 ± 0.0022 J/K/mol; molar heat capacity at constant pressure (12.3 K): 0.1145 ± 0.0024 J/K/mol; molar heat capacity at constant pressure (13 K): 0.1378 ± 0.0029 J/K/mol; molar heat capacity at constant pressure (13.64 K): 0.1629 ± 0.0034 J/K/mol; molar heat capacity at constant pressure (14 K): 0.1786 ± 0.0037 J/K/mol; molar heat capacity at constant pressure (15 K): 0.2282 ± 0.0047 J/K/mol; molar heat capacity at constant pressure (15.18 K): 0.237 ± 0.0049 J/K/mol; molar heat capacity at constant pressure (16 K): 0.2876 ± 0.0059 J/K/mol; molar heat capacity at constant pressure (16.82 K): 0.3415 ± 0.007 J/K/mol; molar heat capacity at constant pressure (17 K): 0.3576 ± 0.0073 J/K/mol; molar heat capacity at constant pressure (18 K): 0.439 ± 0.009 J/K/mol; molar heat capacity at constant pressure (18.66 K): 0.5019 ± 0.01 J/K/mol; molar heat capacity at constant pressure (19 K): 0.5323 ± 0.011 J/K/mol; molar heat capacity at constant pressure (20 K): 0.6378 ± 0.013 J/K/mol; molar heat capacity at constant pressure (20.68 K): 0.718 ± 0.015 J/K/mol; molar heat capacity at constant pressure (22.98 K): 1.028 ± 0.021 J/K/mol; molar heat capacity at constant pressure (25 K): 1.349 ± 0.027 J/K/mol; molar heat capacity at constant pressure (25.55 K): 1.448 ± 0.029 J/K/mol; molar heat capacity at constant pressure (28.39 K): 1.989 ± 0.04 J/K/mol; molar heat capacity at constant pressure (30 K): 2.327 ± 0.047 J/K/mol; molar heat capacity at constant pressure (31.54 K): 2.658 ± 0.053 J/K/mol; molar heat capacity at constant pressure (35 K): 3.48 ± 0.07 J/K/mol; molar heat capacity at constant pressure (35.05 K): 3.48 ± 0.07 J/K/mol; molar heat capacity at constant pressure (38.93 K): 4.451 ± 0.089 J/K/mol; molar heat capacity at constant pressure (40 K): 4.713 ± 0.094 J/K/mol; molar heat capacity at constant pressure (43.22 K): 5.533 ± 0.11 J/K/mol; molar heat capacity at constant pressure (45 K): 5.965 ± 0.12 J/K/mol; molar heat capacity at constant pressure (48.01 K): 6.726 ± 0.14 J/K/mol; molar heat capacity at constant pressure (50 K): 7.218 ± 0.14 J/K/mol; molar heat capacity at constant pressure (53.32 K): 8.042 ± 0.16 J/K/mol; molar heat capacity at constant pressure (55 K): 8.463 ± 0.17 J/K/mol; molar heat capacity at constant pressure (59.21 K): 9.463 ± 0.19 J/K/mol; molar heat capacity at constant pressure (60 K): 9.606 ± 0.19 J/K/mol; molar heat capacity at constant pressure (65 K): 10.71 ± 0.21 J/K/mol; molar heat capacity at constant pressure (65.75 K): 10.92 ± 0.22 J/K/mol; molar heat capacity at constant pressure (70 K): 11.8 ± 0.24 J/K/mol; molar heat capacity at constant pressure (73.03 K): 12.44 ± 0.25 J/K/mol; molar heat capacity at constant pressure (75 K): 12.85 ± 0.26 J/K/mol; molar heat capacity at constant pressure (80 K): 13.87 ± 0.28 J/K/mol; molar heat capacity at constant pressure (81.09 K): 14.11 ± 0.28 J/K/mol; molar heat capacity at constant pressure (85 K): 14.86 ± 0.3 J/K/mol; molar heat capacity at constant pressure (90 K): 15.83 ± 0.32 J/K/mol; molar heat capacity at constant pressure (90.06 K): 15.91 ± 0.32 J/K/mol; molar heat capacity at constant pressure (95 K): 16.77 ± 0.34 J/K/mol; molar heat capacity at constant pressure (99.87 K): 17.65 ± 0.35 J/K/mol; molar heat capacity at constant pressure (100 K): 17.69 ± 0.35 J/K/mol; molar heat capacity at constant pressure (110 K): 19.46 ± 0.39 J/K/mol; molar heat capacity at constant pressure (110.46 K): 19.47 ± 0.39 J/K/mol; molar heat capacity at constant pressure (120 K): 21.16 ± 0.42 J/K/mol; molar heat capacity at constant pressure (120.49 K): 21.17 ± 0.42 J/K/mol; molar heat capacity at constant pressure (130 K): 22.78 ± 0.46 J/K/mol; molar heat capacity at constant pressure (130.48 K): 22.84 ± 0.46 J/K/mol; molar heat capacity at constant pressure (140 K): 24.34 ± 0.49 J/K/mol; molar heat capacity at constant pressure (140.63 K): 24.44 ± 0.49 J/K/mol; molar heat capacity at constant pressure (150 K): 25.82 ± 0.52 J/K/mol; molar heat capacity at constant pressure (150.79 K): 25.91 ± 0.52 J/K/mol; molar heat capacity at constant pressure (160 K): 27.24 ± 0.54 J/K/mol; molar heat capacity at constant pressure (160.85 K): 27.33 ± 0.55 J/K/mol; molar heat capacity at constant pressure (170 K): 28.58 ± 0.57 J/K/mol; molar heat capacity at constant pressure (170.76 K): 28.78 ± 0.58 J/K/mol; molar heat capacity at constant pressure (180 K): 29.85 ± 0.6 J/K/mol; molar heat capacity at constant pressure (181.03 K): 30.05 ± 0.6 J/K/mol; molar heat capacity at constant pressure (190 K): 31.05 ± 0.62 J/K/mol; molar heat capacity at constant pressure (191.32 K): 31.22 ± 0.62 J/K/mol; molar heat capacity at constant pressure (200 K): 32.19 ± 0.64 J/K/mol; molar heat capacity at constant pressure (201.42 K): 32.29 ± 0.65 J/K/mol; molar heat capacity at constant pressure (210 K): 33.26 ± 0.67 J/K/mol; molar heat capacity at constant pressure (211.59 K): 33.41 ± 0.67 J/K/mol; molar heat capacity at constant pressure (220 K): 34.27 ± 0.69 J/K/mol; molar heat capacity at constant pressure (221.8 K): 34.44 ± 0.69 J/K/mol; molar heat capacity at constant pressure (230 K): 35.22 ± 0.7 J/K/mol; molar heat capacity at constant pressure (232 K): 35.5 ± 0.71 J/K/mol; molar heat capacity at constant pressure (240 K): 36.12 ± 0.72 J/K/mol; molar heat capacity at constant pressure (242.17 K): 36.29 ± 0.73 J/K/mol; molar heat capacity at constant pressure (250 K): 36.96 ± 0.74 J/K/mol; molar heat capacity at constant pressure (252.15 K): 37.15 ± 0.74 J/K/mol; molar heat capacity at constant pressure (260 K): 37.76 ± 0.76 J/K/mol; molar heat capacity at constant pressure (262.28 K): 37.93 ± 0.76 J/K/mol; molar heat capacity at constant pressure (270 K): 38.5 ± 0.77 J/K/mol; molar heat capacity at constant pressure (272.28 K): 38.59 ± 0.77 J/K/mol; molar heat capacity at constant pressure (273.15 K): 38.73 ± 0.77 J/K/mol; molar heat capacity at constant pressure (280 K): 39.2 ± 0.78 J/K/mol; molar heat capacity at constant pressure (282.48 K): 39.3 ± 0.79 J/K/mol; molar heat capacity at constant pressure (290 K): 39.86 ± 0.8 J/K/mol; molar heat capacity at constant pressure (292.54 K): 39.86 ± 0.8 J/K/mol; molar heat capacity at constant pressure (298.15 K): 40.36 ± 0.81 J/K/mol; molar heat capacity at constant pressure (300 K): 40.48 ± 0.81 J/K/mol; molar heat capacity at constant pressure (302.58 K): 40.86 ± 0.82 J/K/mol
